Assay: xn = mol fraction of the nth substance listed
Conditions: 101 kPa, Liquid; for mass density: Vibrating tube method

CCC(C)(C)O [2-methylbutan-2-ol] + CCO
Conditions	kinematic viscosity [m2/s]	mass density [kg/m3]
293.15 K, x1 = 0.0268	–	790.6
293.15 K, x1 = 0.0549	–	791.5
293.15 K, x1 = 0.0845	–	792.2
293.15 K, x1 = 0.0915	1.64e-06	–
293.15 K, x1 = 0.1156	–	793
293.15 K, x1 = 0.1484	–	793.9
293.15 K, x1 = 0.1753	1.76e-06	–
293.15 K, x1 = 0.183	–	794.8
293.15 K, x1 = 0.2524	1.89e-06	–
293.15 K, x1 = 0.2584	–	797
293.15 K, x1 = 0.3235	2.04e-06	–
293.15 K, x1 = 0.3433	–	799.5
293.15 K, x1 = 0.3894	2.19e-06	–
293.15 K, x1 = 0.4395	–	802.4
293.15 K, x1 = 0.4505	2.35e-06	–
293.15 K, x1 = 0.5495	–	805.3
293.15 K, x1 = 0.5605	2.69e-06	–
293.15 K, x1 = 0.6567	3.07e-06	–
293.15 K, x1 = 0.6765	–	808.3
293.15 K, x1 = 0.7416	3.46e-06	–
293.15 K, x1 = 0.817	3.86e-06	–
293.15 K, x1 = 0.8247	–	811.2
293.15 K, x1 = 0.8844	4.26e-06	–
293.15 K, x1 = 0.9451	4.67e-06	–
293.15 K, x1 = 1	5.11e-06	813.9
298.15 K, x1 = 0.0268	–	786.4
298.15 K, x1 = 0.0549	–	787.3
298.15 K, x1 = 0.0845	–	788.2
298.15 K, x1 = 0.0915	1.5e-06	–
298.15 K, x1 = 0.1156	–	789.1
298.15 K, x1 = 0.1484	–	790
298.15 K, x1 = 0.1753	1.62e-06	–
298.15 K, x1 = 0.183	–	791
298.15 K, x1 = 0.2524	1.74e-06	–
298.15 K, x1 = 0.2584	–	793.3
298.15 K, x1 = 0.3235	1.86e-06	–
298.15 K, x1 = 0.3433	–	795.9
298.15 K, x1 = 0.3894	1.99e-06	–
298.15 K, x1 = 0.4395	–	798.8
298.15 K, x1 = 0.4505	2.13e-06	–
298.15 K, x1 = 0.5495	–	801.8
298.15 K, x1 = 0.5605	2.43e-06	–
298.15 K, x1 = 0.6567	2.76e-06	–
298.15 K, x1 = 0.6765	–	804.8
298.15 K, x1 = 0.7416	3.1e-06	–
298.15 K, x1 = 0.817	3.44e-06	–
298.15 K, x1 = 0.8247	–	807.7
298.15 K, x1 = 0.8844	3.78e-06	–
298.15 K, x1 = 0.9451	4.12e-06	–
298.15 K, x1 = 1	4.47e-06	810.5
303.15 K, x1 = 0.0268	–	782.1
303.15 K, x1 = 0.0549	–	783.2
303.15 K, x1 = 0.0845	–	784.2
303.15 K, x1 = 0.0915	1.34e-06	–
303.15 K, x1 = 0.1156	–	785.2
303.15 K, x1 = 0.1484	–	786.2
303.15 K, x1 = 0.1753	1.44e-06	–
303.15 K, x1 = 0.183	–	787.3
303.15 K, x1 = 0.2524	1.55e-06	–
303.15 K, x1 = 0.2584	–	789.7
303.15 K, x1 = 0.3235	1.66e-06	–
303.15 K, x1 = 0.3433	–	792.3
303.15 K, x1 = 0.3894	1.78e-06	–
303.15 K, x1 = 0.4395	–	795.2
303.15 K, x1 = 0.4505	1.91e-06	–
303.15 K, x1 = 0.5495	–	798.2
303.15 K, x1 = 0.5605	2.17e-06	–
303.15 K, x1 = 0.6567	2.45e-06	–
303.15 K, x1 = 0.6765	–	801.3
303.15 K, x1 = 0.7416	2.74e-06	–
303.15 K, x1 = 0.817	3.04e-06	–
303.15 K, x1 = 0.8247	–	804.2
303.15 K, x1 = 0.8844	3.33e-06	–
303.15 K, x1 = 0.9451	3.62e-06	–
303.15 K, x1 = 1	3.91e-06	807
308.15 K, x1 = 0.0268	–	777.8
308.15 K, x1 = 0.0549	–	778.9
308.15 K, x1 = 0.0845	–	780
308.15 K, x1 = 0.0915	1.23e-06	–
308.15 K, x1 = 0.1156	–	781.1
308.15 K, x1 = 0.1484	–	782.3
308.15 K, x1 = 0.1753	1.33e-06	–
308.15 K, x1 = 0.183	–	783.4
308.15 K, x1 = 0.2524	1.42e-06	–
308.15 K, x1 = 0.2584	–	785.9
308.15 K, x1 = 0.3235	1.52e-06	–
308.15 K, x1 = 0.3433	–	788.6
308.15 K, x1 = 0.3894	1.62e-06	–
308.15 K, x1 = 0.4395	–	791.5
308.15 K, x1 = 0.4505	1.72e-06	–
308.15 K, x1 = 0.5495	–	794.6
308.15 K, x1 = 0.5605	1.95e-06	–
308.15 K, x1 = 0.6567	2.19e-06	–
308.15 K, x1 = 0.6765	–	797.6
308.15 K, x1 = 0.7416	2.43e-06	–
308.15 K, x1 = 0.817	2.68e-06	–
308.15 K, x1 = 0.8247	–	800.6
308.15 K, x1 = 0.8844	2.93e-06	–
308.15 K, x1 = 0.9451	3.16e-06	–
308.15 K, x1 = 1	3.39e-06	803.5
313.15 K, x1 = 0.0268	–	773.5
313.15 K, x1 = 0.0549	–	774.8
313.15 K, x1 = 0.0845	–	776
313.15 K, x1 = 0.0915	1.12e-06	–
313.15 K, x1 = 0.1156	–	777.2
313.15 K, x1 = 0.1484	–	778.4
313.15 K, x1 = 0.1753	1.2e-06	–
313.15 K, x1 = 0.183	–	779.6
313.15 K, x1 = 0.2524	1.29e-06	–
313.15 K, x1 = 0.2584	–	782.2
313.15 K, x1 = 0.3235	1.37e-06	–
313.15 K, x1 = 0.3433	–	784.9
313.15 K, x1 = 0.3894	1.46e-06	–
313.15 K, x1 = 0.4395	–	787.9
313.15 K, x1 = 0.4505	1.55e-06	–
313.15 K, x1 = 0.5495	–	790.9
313.15 K, x1 = 0.5605	1.74e-06	–
313.15 K, x1 = 0.6567	1.94e-06	–
313.15 K, x1 = 0.6765	–	794
313.15 K, x1 = 0.7416	2.14e-06	–
313.15 K, x1 = 0.817	2.34e-06	–
313.15 K, x1 = 0.8247	–	797.1
313.15 K, x1 = 0.8844	2.54e-06	–
313.15 K, x1 = 0.9451	2.73e-06	–
313.15 K, x1 = 1	2.91e-06	800
318.15 K, x1 = 0.0268	–	769.3
318.15 K, x1 = 0.0549	–	770.6
318.15 K, x1 = 0.0845	–	771.9
318.15 K, x1 = 0.0915	1.02e-06	–
318.15 K, x1 = 0.1156	–	773.2
318.15 K, x1 = 0.1484	–	774.4
318.15 K, x1 = 0.1753	1.1e-06	–
318.15 K, x1 = 0.183	–	775.7
318.15 K, x1 = 0.2524	1.18e-06	–
318.15 K, x1 = 0.2584	–	778.4
318.15 K, x1 = 0.3235	1.25e-06	–
318.15 K, x1 = 0.3433	–	781.2
318.15 K, x1 = 0.3894	1.33e-06	–
318.15 K, x1 = 0.4395	–	784.2
318.15 K, x1 = 0.4505	1.41e-06	–
318.15 K, x1 = 0.5495	–	787.3
318.15 K, x1 = 0.5605	1.57e-06	–
318.15 K, x1 = 0.6567	1.73e-06	–
318.15 K, x1 = 0.6765	–	790.5
318.15 K, x1 = 0.7416	1.9e-06	–
318.15 K, x1 = 0.817	2.07e-06	–
318.15 K, x1 = 0.8247	–	793.6
318.15 K, x1 = 0.8844	2.23e-06	–
318.15 K, x1 = 0.9451	2.38e-06	–
318.15 K, x1 = 1	2.52e-06	796.6
323.15 K, x1 = 0.0268	–	764.9
323.15 K, x1 = 0.0549	–	766.3
323.15 K, x1 = 0.0845	–	767.7
323.15 K, x1 = 0.0915	9.01e-07	–
323.15 K, x1 = 0.1156	–	769.1
323.15 K, x1 = 0.1484	–	770.4
323.15 K, x1 = 0.1753	9.68e-07	–
323.15 K, x1 = 0.183	–	771.8
323.15 K, x1 = 0.2524	1.03e-06	–
323.15 K, x1 = 0.2584	–	774.6
323.15 K, x1 = 0.3235	1.09e-06	–
323.15 K, x1 = 0.3433	–	777.5
323.15 K, x1 = 0.3894	1.16e-06	–
323.15 K, x1 = 0.4395	–	780.5
323.15 K, x1 = 0.4505	1.22e-06	–
323.15 K, x1 = 0.5495	–	783.7
323.15 K, x1 = 0.5605	1.35e-06	–
323.15 K, x1 = 0.6567	1.49e-06	–
323.15 K, x1 = 0.6765	–	787
323.15 K, x1 = 0.7416	1.62e-06	–
323.15 K, x1 = 0.817	1.75e-06	–
323.15 K, x1 = 0.8247	–	790.2
323.15 K, x1 = 0.8844	1.87e-06	–
323.15 K, x1 = 0.9451	1.99e-06	–
323.15 K, x1 = 1	2.09e-06	793.3

Source: the NIST ThermoML archive (doi:10.1021/je050416y)
